Assay results published in paper PMC6214108, “Synthesis and In Vitro Antitumor Activity of Novel Bivalent β-Carboline-3-carboxylic Acid Derivatives with DNA as a Potential Target” (International Journal of Molecular Sciences, 2018).

Columns and labels:
A549 cells = assay: Cell apoptosis assay, Annexin V-FITC/PI dual staining, flow cytometry; type: cell-based; settings: 48 h; for Percentage of Cell Apoptosis (%) Normal Living Cell: lower left quadrant in Figure 3; for Percentage of Cell Apoptosis (%) Early Apoptosis: lower right quadrant in Figure 3
Description: The cell apoptosis was evaluated using Annexin V-FITC/PI dual staining (Beyotime, China). A549 cells (1 × 10^6 cells per well) seeded into 6-well plates (JET, Guangzhou, China) were incubated with DMEM containing various concentrations (2, 4, and 8 μM) of β-carbolines (4B, 6i, 4D, and 6u) for 48 h at 37 °C and 5% CO2. The cells in the supernatant and adherent were collected and washed with PBS, and then the cells were stained with Annexin V-FITC and PI for 20 min at r.t. The samples were analyzed using flow cytometry (Becton Dickinson, San Jose, CA, USA).
Figure 3 The cell apoptosis was detected by flow cytometry using Annexin V-FITC/PI dual staining. A549 cells were treated with 4B, 6i, 4D, and 6u at 2, 4, and 8 μM for 48 h, and then stained with Annexin V-FITC and PI for 15 min at 37 °C. The proportions of the living cells, the early apoptosis cells, and the late apoptotic cells were analyzed by FCS Express 5.0. TEXT PRINTED IN THE PICTURE: 4B: 9.00% (2 μM); 11.89% (2 μM); 75.93% (2 μM); 3.18% (2 μM); 8.92% (4 μM); 27.14% (4 μM); 48.59% (4 μM); 15.35% (4 μM); 3.89% (8 μM); 65.76% (8 μM); 21.95% (8 μM); 8.40% (8 μM) | 6i: 0.77% (2 μM); 20.26% (2 μM); 72.12% (2 μM); 6.85% (2 μM); 9.33% (4 μM); 33.08% (4 μM); 44.94% (4 μM); 12.65% (4 μM); 23.51% (8 μM); 59.73% (8 μM); 12.52% (8 μM); 4.24% (8 μM) | Control: 0.36%; 7.08%; 88.34%; 4.22% | 4D: 2.62% (2 μM); 16.16% (2 μM); 73.94% (2 μM); 7.27% (2 μM); 10.30% (4 μM); 34.96% (4 μM); 47.93% (4 μM); 6.80% (4 μM); 22.79% (8 μM); 54.30% (8 μM); 17.63% (8 μM); 5.28% (8 μM) | 6u: 0.17% (2 μM); 21.64% (2 μM); 66.05% (2 μM); 12.14% (2 μM); 6.92% (4 μM); 54.01% (4 μM); 32.53% (4 μM); 6.54% (4 μM); 2.79% (8 μM); 80.73% (8 μM); 8.83% (8 μM); 7.65% (8 μM) DOUBTS OF THE COPYIST ABOUT THIS PICTURE: The quadrant percentages carry no printed measure. For each plot they are listed in the order upper left, upper right, lower left, lower right. / All quadrant percentages are printed very small and blurred, so 3, 5, 6, 8 and 9 cannot be told apart with certainty in any of them.

CT DNA = assay: Thermal denaturation study with CT DNA; type: binding, calf; settings: β-carboline/DNA ratio of 0.5, pH 7.4
Description: The DNA-binding modes of the β-carboline derivatives (4B, 6i, 4D, and 6u) with CT DNA were examined by DNA thermal denaturation experiments, as previously described. The solutions containing complexes of CT DNA and 4B, 6i, 4D, or 6u were heated using a thermostatic water bath, and the absorbance was measured in 1 °C steps from 30 °C to 95 °C at 260 nm (At) by a UV-Vis spectrophotometer (A is the absorbance of the solution at 260 nm at different temperatures, t is the temperature). The experiments were performed in PE buffer (pH = 7.4) with a β-carboline/DNA ratio of 0.5. The ΔTm value of DNA alone is 56.8 °C. ΔTm = ΔTm^(DNA + 4B, 6i, 4D, or 6u) − ΔTm^(DNA alone).
Figure 6 Thermal denaturation study of the complexes of β-carbolines (4B, 6i, 4D, and 6u) and CT-DNA. Melting temperatures were measured in PBS-EDTA buffer (1 mM Na2HPO4, 0.1 mM EDTA, PH 7.4) with a β-carboline (4B, 6i, 4D, and 6u)/DNA ratio of 0.5. ΔTm = (ΔTm^4B,6i,4D, or 6u + DNA − ΔTm^DNA).

[1] = system: SGC-7901 (gastric carcinoma) cell line; assay: MTT cytotoxicity assay, SGC-7901; type: cell-based; settings: Homo sapiens, 48 h, mean of three independent experiments, read-out: IC50 (μM) Mean ± SD, SGC-7901
Description: All cell lines (A549, SGC-7901, Hela, SMMC-7721, and MCF-7) were purchased from the American Type Culture Collection (Manassas, VA, USA), and were cultured in Dulbecco’s modified Eagle’s medium (DMEM, HycloneLaboratories Inc., Logan, Utah, USA) supplemented with 10% fetal bovine serum (FBS, Gibco&Invitrogen, Carlsbad, CA, USA) at 37 °C and 5% CO2.
The cytotoxic activities of β-carboline-3-carboxylic acid derivatives were investigated by the MTT method, as previously described. Cells (1 × 10^4 cells per well) seeded into 96-well plates (JET, Guangzhou, China) were incubated with DMEM containing various concentrations (2.5, 5, 10, 20, 40, and 80 μM) of β-carbolines (4A, 4B, 4C, 4D, 6a-6f, 6g-6l, 6m-6r, and 6s-6x) for 48 h at 37 °C and 5% CO2. Then, 10 µL of 5 mg/mL MTT reagent dissolved in PBS (Phosphate buffered saline) was added per well, and plates were incubated at 37 °C for 4 h. The medium was carefully removed and 100 µL dimethyl sulfoxide (DMSO) was added to dissolve the formazan crystals. The absorbance was measured at 490 nm with a microplate reader (ThermoFisher Scientific Inc., Waltham, MA, USA). The β-carbolines were dissolved in DMSO as stock solutions (10 mM) at −20 °C, and diluted in the final experimental solution using DMEM before use. A549 (lung carcinoma), SGC-7901 (gastric carcinoma), Hela (cervical carcinoma), SMMC-7721 (liver carcinoma), and MCF-7 (breast carcinoma) cell lines were used for the antitumor activity screening. The IC50 values were the mean values of three independent experiments.

| Compound | Percentage of Cell Apoptosis (%) Late Apoptosis and Necrosis (A549 cells; A549, 2 μM) [%] | Percentage of Cell Apoptosis (%) Normal Living Cell (A549 cells; A549, 2 μM) [%] | Percentage of Cell Apoptosis (%) Early Apoptosis (A549 cells; A549, 2 μM) [%] | Percentage of Cell Apoptosis (%) Late Apoptosis and Necrosis (A549 cells; A549, 4 μM) [%] | Percentage of Cell Apoptosis (%) Normal Living Cell (A549 cells; A549, 4 μM) [%] | Percentage of Cell Apoptosis (%) Early Apoptosis (A549 cells; A549, 4 μM) [%] | Percentage of Cell Apoptosis (%) Late Apoptosis and Necrosis (A549 cells; A549, 8 μM) [%] | Percentage of Cell Apoptosis (%) Normal Living Cell (A549 cells; A549, 8 μM) [%] | Percentage of Cell Apoptosis (%) Early Apoptosis (A549 cells; A549, 8 μM) [%] | ΔTm (CT DNA) [°C] | IC50 [1] [µM] |
| --- | --- | --- | --- | --- | --- | --- | --- | --- | --- | --- | --- |
| COC(=O)c1cc2c3ccccc3n(Cc3ccccc3C)c2cn1 [Compound 4B] | 20.89 | 75.93 | 3.18 | 36.06 | 48.59 | 15.35 | 69.65 | 21.95 | 8.40 | 7.5 | 42.3 ± 2.13 |
| COC(=O)c1cc2c3ccccc3n(Cc3ccccc3F)c2cn1 [Compound 4D] | 18.78 | 73.94 | 7.27 | 45.26 | 47.93 | 6.80 | 77.09 | 17.63 | 5.28 | 3.5 | 17.8 ± 0.66 |
| Cc1ccccc1Cn1c2ccccc2c2cc(C(=O)OCCCCCOC(=O)c3cc4c5ccccc5n(Cc5ccccc5C)c4cn3)ncc21 [Compound 6i] | 21.03 | 72.12 | 6.85 | 42.41 | 44.94 | 12.65 | 83.24 | 12.52 | 4.24 | 8.5 | 7.18 ± 0.01 |
| O=C(OCCCCCOC(=O)c1cc2c3ccccc3n(Cc3ccccc3F)c2cn1)c1cc2c3ccccc3n(Cc3ccccc3F)c2cn1 [Compound 6u] | 21.81 | 66.05 | 12.14 | 60.93 | 32.53 | 6.54 | 83.52 | 8.83 | 7.65 | 9.0 | 5.86 ± 0.08 |
